The values that follow come from patent publication US9492436B2, “Azabenzimidazole derivatives” (Boehringer Ingelheim International GmbH, priority 2013, dated 2016).

The term EC50 denotes the concentration giving half of the maximal effect. Lower therefore signals an effect from little substance.

The structures appear in SMILES notation.

The target in this assay is T1, AMPK complex 1 (containing alpha1beta1gamma1) (Homo sapiens, UniProt Q13131+Q9Y478).
T1 construct: GST (Glutathion S transferase) (N); made in house; host or cells: baculovirus; virus made in Sf9, expression in High Five cells
T1 sequence (Q13131 whole entry): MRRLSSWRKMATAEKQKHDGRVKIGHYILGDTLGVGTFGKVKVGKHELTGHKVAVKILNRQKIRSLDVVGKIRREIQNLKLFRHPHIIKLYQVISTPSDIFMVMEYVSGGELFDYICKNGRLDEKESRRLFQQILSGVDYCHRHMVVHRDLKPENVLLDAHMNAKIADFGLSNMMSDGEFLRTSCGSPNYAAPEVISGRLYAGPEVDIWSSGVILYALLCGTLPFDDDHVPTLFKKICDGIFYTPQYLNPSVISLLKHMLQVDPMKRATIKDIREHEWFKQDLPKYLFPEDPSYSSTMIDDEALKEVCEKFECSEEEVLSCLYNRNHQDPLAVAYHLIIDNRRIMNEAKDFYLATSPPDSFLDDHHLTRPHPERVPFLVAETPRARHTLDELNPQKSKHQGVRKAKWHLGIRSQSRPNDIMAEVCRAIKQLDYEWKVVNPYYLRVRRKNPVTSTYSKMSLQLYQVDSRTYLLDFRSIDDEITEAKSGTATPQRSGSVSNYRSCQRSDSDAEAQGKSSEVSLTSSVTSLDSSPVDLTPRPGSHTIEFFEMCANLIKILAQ
T1 sequence (Q9Y478 whole entry): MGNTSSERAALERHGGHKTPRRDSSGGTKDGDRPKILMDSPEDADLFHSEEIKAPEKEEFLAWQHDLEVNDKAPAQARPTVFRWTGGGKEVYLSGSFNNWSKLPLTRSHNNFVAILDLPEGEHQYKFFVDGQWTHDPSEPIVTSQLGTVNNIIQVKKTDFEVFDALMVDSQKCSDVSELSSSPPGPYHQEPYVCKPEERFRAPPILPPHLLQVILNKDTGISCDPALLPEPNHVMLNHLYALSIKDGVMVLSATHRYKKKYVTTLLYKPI
T1 sequence (P54619 whole entry partner): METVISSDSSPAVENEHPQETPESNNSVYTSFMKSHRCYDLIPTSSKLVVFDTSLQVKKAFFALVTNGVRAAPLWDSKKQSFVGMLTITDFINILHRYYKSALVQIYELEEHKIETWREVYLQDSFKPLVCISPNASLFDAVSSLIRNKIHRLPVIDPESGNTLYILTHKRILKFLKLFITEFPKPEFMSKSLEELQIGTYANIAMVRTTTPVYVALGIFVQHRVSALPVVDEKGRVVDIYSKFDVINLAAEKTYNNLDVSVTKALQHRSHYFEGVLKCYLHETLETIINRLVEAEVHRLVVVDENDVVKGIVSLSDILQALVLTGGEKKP
The assay can be described thus: In vitro AMPK activation assay (ADP-Glo Kinase Assay). The class given is biochemical. Conditions: 30 μM ATP, 1 μM peptide, 60 min, room temperature. The source says: Activated AMPK complex 1 (containing alpha1beta1gamma1) was obtained from baculovirus expression system. The gene encoding AMPK alpha1 was cloned into the pACG2T vector (BD Biosciences) to obtain a N-terminal Glutathion S transferase (GST)-fusion protein. The genes encoding AMPK beta 1 and gamma1 were cloned into the p2Bac dual multiple cloning site vector (Invitrogen) with beta1 under the control of the p10 promoter and gamma1 under the control of the PH promoter. The transfer vectors containing AMPK were co-transfected individually with AcPNV BacMagic-3 DNA (EMD Millipore) in Sf9 cells and the recombinant baculoviruses were harvested after 5 days, followed by 3 rounds of amplification of the virus stock in Sf9 cells. AMPK (alpha1beta1gamma1) was expressed in High Five 5 cells by co-infection of recombinant alpha1 virus and recombinant beta1/gamma1 virus for 72 h at 27° C. Cells were harvested by centrifugation and lysed by 3 freeze/thaw cycles in PBS with 10% glycerol and protease inhibitor cocktail (Roche). After centrifugation AMPK a1b1g1 in the supernatant was captured by immobilized glutathione (GE Healthcare), impurities were washed away with PBS and AMPK alpha1beta1gamma1 was eluted with PBS containing 20 mM reduced gluthathione. The protein buffer was then exchanged to PBS with 10% glycerol and protein concentration was determined by UV absorbance.
The white 384-well Optiplates (cat.no. 6007299) were purchased from PerkinElmer. The V9101 ADP-Glo Kinase Assay and ultra pure ATP (V915A) was purchased from Promega. The substrate for AMPK (NH2-HMRSAMSGLHLVKRR_CONH2) was purchased from Upstate (12-355).
Compounds were tested in either serial dilutions or single dose concentrations. The serial compound dilutions were prepared in 100% DMSO automatically. The final DMSO concentration in the assay was 0.1%.
The Compound Stock Solutions were 10 mM in 100% DMSO. The compounds were solubilised at room temperature.
In the 384-well plates 1.25 ul of test compound in assay buffer was mixed with 1.25 ul of AMPK and 1.25 μl of the peptide (final concentration of 1 μM) and 1.25 μl of ATP (final concentration of 30 μM), both dissolved in assay buffer. This step was followed by an incubation time of 60 min. Then 5 μl of ADP Glo Reagent was added. This was followed by 40 min of incubation. Then 10 μl of Kinase Detection Reagent was admixed. The plates were sealed and after an incubation period of 30 min, the luminescence signal was measured in an Envision reader. All incubation steps were accomplished at room temperature.
Each assay microtiter plate contained wells with vehicle controls instead of compound (0.1% DMSO in water) as reference for the low signal (100% CTL, low signal), and wells with serial dilutions of AMP (final 30 μM) as reference for high signals.
The luminescence signal generated was proportional to the ADP concentration produced and was correlated with AMPK activity. The analysis of the data was performed by the calculation of the percentage of ATP consumption of AMPK in the presence of the test compound compared to the consumption of ATP in the presence of AMPK without compound. (RLU(sample)/RLU(low control))*100[RLU=relative luminescence units]
An activator of the AMPK enzyme gave values above 100% CTL.
EC50 values based on dose response curves are calculated with the XIFIT software using the 4 Parameter Logistic Model or Sigmoidal Dose-Response Model.
In general terms: ADP-Glo first removes unused ATP, then detects ADP through luciferase.

Turning to `N=S1(=O)CCC(c2ccc(-c3nc4[nH]c(O[C@@H]5CO[C@H]6[C@@H]5OC[C@H]6O)nc4cc3Cl)cc2)CC1` (single isomer, unassigned) [Example 55], the response was half-maximal at 26 nM (EC50).
The compound `CS(=O)(=Nc1ccc(-c2nc3[nH]c(O[C@@H]4CO[C@H]5[C@@H]4OC[C@H]5O)nc3cc2Cl)cc1)c1ccncc1` (stereo partly drawn) [Example 26, N-(4-(6-Chloro-2-((3R,3aR,6R,6aR)-6-hydroxyhexahydrofuro[3,2-b]furan-3-yloxy)-3H-imidazo[4,5-b]pyridin-5-yl)phenyl)-S-methyl-S-(pyridin-4-yl)-sulfoximide] registered an EC50 of 145 nM.
The value for `CS(C)(=O)=Nc1ccnc(-c2ccc(-c3nc4[nH]c(O[C@@H]5CO[C@H]6[C@@H]5OC[C@H]6O)nc4cc3Cl)cc2)c1` [Example 37, N-(2-{4-[6-Chloro-2-((3R,3aR,6R,6aR)-6-hydroxyhexahydrofuro[3,2-b]furan-3-yloxy)-3H-imidazo[4,5-b]pyridin-5-yl]-phenyl}-pyridin-4-yl)-S,S-dimethylsulfoximide] was 47 nM.
The value for `CS(C)(=O)=Nc1ccc2c(c1)CN(c1ccc(-c3nc4[nH]c(O[C@@H]5CO[C@H]6[C@@H]5OC[C@H]6O)nc4cc3Cl)cc1)C2` [Example 43, N-(2-{4-[6-Chloro-2-((3R,3aR,6R,6aR)-6-hydroxyhexahydrofuro[3,2-b]furan-3-yloxy)-3H-imidazo[4,5-b]pyridin-5-yl]-phenyl}-2,3-dihydro-1H-isoindol-5-yl)-S,S-dimethylsulfoximide] was 293 nM; that for `N=S1(=O)CCC(c2ccc(-c3nc4[nH]c(O[C@@H]5CO[C@H]6[C@@H]5OC[C@H]6O)nc4cc3Cl)cc2)CC1` (single isomer, unassigned) [Example 54] was 114 nM; that for `C[S@](=O)(=NC(=O)c1ccc(-c2nc3[nH]c(O[C@@H]4CO[C@H]5[C@@H]4OC[C@H]5O)nc3cc2Cl)cc1)c1ccccc1` [Example 25, (R)-N-4-(6-Chloro-2-((3R,3aR,6R,6aR)-6-hydroxyhexahydrofuro[3,2-b]furan-3-yloxy)-3H-imidazo[4,5-b]pyridin-5-yl)-benzoyl-S-methyl-5-phenylsulfoximine] was 1200 nM.
`CS(=N)(=O)c1cnc(-c2ccc(-c3nc4[nH]c(O[C@@H]5CO[C@H]6[C@@H]5OC[C@H]6O)nc4cc3Cl)cc2)nc1` (stereo partly drawn) [Example 49, (3R,3aR,6R,6aR)-6-(6-Chloro-5-(4-(5-(S-methylsulfonimidoyl)pyrimidin-2-yl)phenyl)-3H-imidazo[4,5-b]pyridin-2-yloxy)hexahydrofuro[3,2-b]furan-3-ol]: the half-maximal effective concentration (EC50) worked out at 26 nM.
The value for `CS(C)(=O)=Nc1ccc(-c2ncc(-c3nc4[nH]c(O[C@@H]5CO[C@H]6[C@@H]5OC[C@H]6O)nc4cc3Cl)cn2)cc1` [Example 42, N-(4-{5-[6-Chloro-2-((3R,3aR,6R,6aR)-6-hydroxyhexahydrofuro[3,2-b]furan-3-yloxy)-3H-imidazo[4,5-b]pyridin-5-yl]-pyrimidin-2-yl}-phenyl)-S,S-dimethylsulfoximide] was 410 nM; that for `O=C(N=S1(=O)CCOCC1)c1ccc(-c2nc3[nH]c(O[C@@H]4CO[C@H]5[C@@H]4OC[C@H]5O)nc3cc2Cl)cc1` [Example 21, 4-[6-Chloro-2-((3R,3aR,6R,6aR)-6-hydroxy-hexahydro-furo[3,2-b]furan-3-yloxy)-3H-imidazo[4,5-b]pyridin-5-yl]-N-(4-oxo-4λ6-[1,4]oxathian-4-ylidene)-benzamide] was 43 nM; that for `CS(=O)(=Nc1ccc(-c2ccc(-c3nc4[nH]c(O[C@@H]5CO[C@H]6[C@@H]5OC[C@H]6O)nc4cc3Cl)cc2)cc1)C1CC1` (stereo partly drawn) [Example 15, N-(4′-(6-Chloro-2-((3R,3aR,6R,6aR)-6-hydroxyhexahydrofuro[3,2-b]furan-3-yloxy)-3H-imidazo[4,5-b]pyridin-5-yl)biphenyl-4-yl)-S-cyclopropyl-S-methylsulfoximide] was 41 nM.
`CS(=O)(=NC(=O)c1ccc(-c2nc3[nH]c(O[C@@H]4CO[C@H]5[C@@H]4OC[C@H]5O)nc3cc2Cl)cc1)c1cccnc1` (stereo partly drawn) [Example 19, N-4-(6-Chloro-2-((3R,3aR,6R,6aR)-6-hydroxyhexahydrofuro[3,2-b]furan-3-yloxy)-3H-imidazo[4,5-b]pyridin-5-yl)benzoyl-S-methyl-S-(pyridin-3-yl)-sulfoximine]: the midpoint of the response, the EC50, lay at 55 nM.
`N=S1(=O)CC=C(c2ccc(-c3nc4[nH]c(O[C@@H]5CO[C@H]6[C@@H]5OC[C@H]6O)nc4cc3Cl)cc2)CC1` (some centres unmarked) [Example 40]: the concentration for a half-maximal effect (EC50) came to 50 nM.
The value for `C[S@@](=O)(=Nc1ccc(-c2nc3[nH]c(O[C@@H]4CO[C@H]5[C@@H]4OC[C@H]5O)nc3cc2Cl)cc1)c1ccccc1` [Example 9, (S)-N-(4-(6-Chloro-2-((3R,3aR,6R,6aR)-6-hydroxyhexahydrofuro[3,2-b]furan-3-yloxy)-3H-imidazo[4,5-b]pyridin-5-yl)phenyl)-S-methyl-S-phenylsulfoximide] was 14 nM; that for `CS(C)(=O)=NCc1ccnc(-c2ccc(-c3nc4[nH]c(O[C@@H]5CO[C@H]6[C@@H]5OC[C@H]6O)nc4cc3Cl)cc2)c1` [Example 46, N-(2-(4-(6-Chloro-2-((3R,3aR,6R,6aR)-6-hydroxyhexahydrofuro[3,2-b]furan-3-yloxy)-3H-imidazo[4,5-b]pyridin-5-yl)phenyl)pyridin-4-ylmethyl)-S,S-dimethylsulfoximide] was 37 nM.
Compound `CS(=N)(=O)c1cccc(-c2ccc(-c3nc4[nH]c(O[C@@H]5CO[C@H]6[C@@H]5OC[C@H]6O)nc4cc3Cl)cc2)c1` (stereo partly drawn) [Example 41, (3R,3aR,6R,6aR)-6-(6-Chloro-5-(3′-(S-methylsulfonimidoyl)biphenyl-4-yl)-3H-imidazo[4,5-b]pyridin-2-yloxy)hexahydrofuro[3,2-b]furan-3-ol] returned a half-maximal effective concentration (EC50) of 209 nM.
For the compound `CCS(=O)(CC)=Nc1ccc(-c2ccc(-c3nc4[nH]c(O[C@@H]5CO[C@H]6[C@@H]5OC[C@H]6O)nc4cc3Cl)cc2)cc1` [Example 11, N-(4′-(6-Chloro-2-((3R,3aR,6R,6aR)-6-hydroxyhexahydrofuro[3,2-b]furan-3-yloxy)-3H-imidazo[4,5-b]pyridin-5-yl)biphenyl-4-yl)-S,S-diethylsulfoximide], the EC50 is 3 nM.
The value for `O=S1(=Nc2ccc(-c3ccc(-c4nc5[nH]c(O[C@@H]6CO[C@H]7[C@@H]6OC[C@H]7O)nc5cc4Cl)cc3)cc2)CCCC1` [Example 8, (3R,3aR,6R,6aR)-6-{6-Chloro-5-[4′-(1-oxo-tetrahydro-1λ4-thiophen-1-ylideneamino)-biphenyl-4-yl]-3H-imidazo[4,5-b]pyridin-2-yloxy}-hexahydro-furo[3,2-b]furan-3-ol] was 4 nM; that for `C[S@@](=O)(=NC(=O)c1ccc(-c2nc3[nH]c(O[C@@H]4CO[C@H]5[C@@H]4OC[C@H]5O)nc3cc2Cl)cc1)c1ccccc1` [Example 16, (S)-N-4-(6-Chloro-2-((3R,3aR,6R,6aR)-6-hydroxyhexahydrofuro[3,2-b]furan-3-yloxy)-3H-imidazo[4,5-b]pyridin-5-yl)benzoyl-S-methyl-5-phenylsulfoximine] was 245 nM; that for `CS(C)(=O)=NC(=O)c1ccc(-c2nc3[nH]c(O[C@@H]4CO[C@H]5[C@@H]4OC[C@H]5O)nc3cc2Cl)cc1` [Example 3] was 402 nM.
Compound `CS(C)(=O)=Nc1ccc2c(n1)CN(c1ccc(-c3nc4[nH]c(O[C@@H]5CO[C@H]6[C@@H]5OC[C@H]6O)nc4cc3Cl)cc1)C2` [Example 44, N-(6-{4-[6-Chloro-2-((3R,3aR,6R,6aR)-6-hydroxyhexahydrofuro[3,2-b]furan-3-yloxy)-3H-imidazo[4,5-b]pyridin-5-yl]-phenyl}-6,7-dihydro-5H-pyrrolo[3,4-b]pyridin-2-yl)-S,S-dimethylsulfoximide] came in with an EC50 of 66 nM.
